Consider 1 compound from publication PMC10485003, “Antibiotic hyper-resistance in a class I aminoacyl-tRNA synthetase with altered active site signature motif” (Nature Communications, 2023).

SMILES strings stand for the structures. Where “and” joins values, the source holds several entries; their conditions need not be identical. Equal entries are not always repeated. Where two headings read alike, the source gives them in different places.

The target in experiment [1] is T1, mut-GVHH TtIleRS2 (Thermus thermophilus, UniProt P56690, G56H/H54G).
T1 construct: hexa-histidine tag (pET28b(+)) (N); made in house; host or cells: E. coli Rosetta2 (DE3)
T1 sequence (P56690 1-1043 H54G/G56H): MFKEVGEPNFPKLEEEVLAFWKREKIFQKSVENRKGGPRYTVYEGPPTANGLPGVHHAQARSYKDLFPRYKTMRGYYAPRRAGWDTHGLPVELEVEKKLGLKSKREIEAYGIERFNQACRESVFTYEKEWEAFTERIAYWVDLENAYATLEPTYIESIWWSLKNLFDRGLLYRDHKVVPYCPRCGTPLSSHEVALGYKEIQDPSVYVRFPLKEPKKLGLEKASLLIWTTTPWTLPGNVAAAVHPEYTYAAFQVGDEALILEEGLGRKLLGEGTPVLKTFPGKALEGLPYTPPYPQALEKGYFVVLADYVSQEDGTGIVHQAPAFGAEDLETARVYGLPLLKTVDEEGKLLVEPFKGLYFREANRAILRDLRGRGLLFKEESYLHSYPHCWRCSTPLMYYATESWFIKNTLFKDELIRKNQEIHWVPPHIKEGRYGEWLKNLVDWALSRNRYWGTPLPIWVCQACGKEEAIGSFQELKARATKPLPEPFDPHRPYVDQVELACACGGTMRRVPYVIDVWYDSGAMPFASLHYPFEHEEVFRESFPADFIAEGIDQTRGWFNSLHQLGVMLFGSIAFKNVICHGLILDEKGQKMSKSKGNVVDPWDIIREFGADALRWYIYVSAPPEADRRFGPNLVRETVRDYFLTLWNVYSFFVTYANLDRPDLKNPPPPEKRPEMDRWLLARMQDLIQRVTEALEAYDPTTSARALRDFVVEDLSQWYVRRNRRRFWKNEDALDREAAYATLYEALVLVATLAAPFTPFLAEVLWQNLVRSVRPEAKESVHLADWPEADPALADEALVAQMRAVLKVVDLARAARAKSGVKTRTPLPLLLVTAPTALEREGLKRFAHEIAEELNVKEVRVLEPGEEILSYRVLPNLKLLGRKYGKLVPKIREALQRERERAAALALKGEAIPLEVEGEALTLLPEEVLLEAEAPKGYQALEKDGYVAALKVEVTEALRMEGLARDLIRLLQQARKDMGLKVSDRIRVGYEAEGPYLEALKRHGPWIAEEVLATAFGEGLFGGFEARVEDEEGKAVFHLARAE
Description: biochemical. Here is the method: (§1) L-Ile and ATP concentrations ranged from 1/10 KM to 10 KM values. When measuring the KI towards one of the substrates, the other was held in saturation (concentrations at least 10 KM). The aliquots of the reaction mixture (1–2.5 μl) were quenched in 2 volumes of 500 mM NaOAc pH = 4.5, 0.1% SDS, and formed ^32P-ATP was separated from the remaining ^32P-PPi by thin-layer chromatography on Polygram CEL 300 PEI UV254 TLC plates (Macherey-Nagel, cat: 801063) using 750 mM KH2PO4 pH=3.5, 4 M urea buffer. Visualization and quantification of the signals was performed using a Typhoon Phosphoimager 5 (General Electric) and accompanying ImageQuant™ TL software (SV: 10.2). The kinetic constants were determined using a global fit option of the competitive inhibition model of GraphPad Prism 6 software (SV: 6.01). All experiments were performed in triplicates. The kcat was determined by dividing the maximal velocity, VM, with the used enzyme concentration. […]
(§2) variable substrate (ATP or Ile) was varied in the range of 0.1 KM to 10 KM. The other substrate (Ile or ATP) was kept in excess at 5 to 10 KM. Data were globally fitted to the competitive inhibition model using GraphPad prism 6.01 for Windows software. The values represent the average value ± SD of three independent experiments. Source data are provided as a Source Data file.
(§3) (1 picture or pasted object on this page, not shown here)

The target in experiment [2] is T2, mut-HVGH DrIleRS2 (Deinococcus radiodurans, UniProt Q9RUP8, A59H/H61G/L60V).
T2 construct: hexa-histidine tag (pET28b(+)) (N); made in house; host or cells: E. coli BL21(DE3)
T2 sequence (Q9RUP8 1-1078 A59H/L60V/H61G): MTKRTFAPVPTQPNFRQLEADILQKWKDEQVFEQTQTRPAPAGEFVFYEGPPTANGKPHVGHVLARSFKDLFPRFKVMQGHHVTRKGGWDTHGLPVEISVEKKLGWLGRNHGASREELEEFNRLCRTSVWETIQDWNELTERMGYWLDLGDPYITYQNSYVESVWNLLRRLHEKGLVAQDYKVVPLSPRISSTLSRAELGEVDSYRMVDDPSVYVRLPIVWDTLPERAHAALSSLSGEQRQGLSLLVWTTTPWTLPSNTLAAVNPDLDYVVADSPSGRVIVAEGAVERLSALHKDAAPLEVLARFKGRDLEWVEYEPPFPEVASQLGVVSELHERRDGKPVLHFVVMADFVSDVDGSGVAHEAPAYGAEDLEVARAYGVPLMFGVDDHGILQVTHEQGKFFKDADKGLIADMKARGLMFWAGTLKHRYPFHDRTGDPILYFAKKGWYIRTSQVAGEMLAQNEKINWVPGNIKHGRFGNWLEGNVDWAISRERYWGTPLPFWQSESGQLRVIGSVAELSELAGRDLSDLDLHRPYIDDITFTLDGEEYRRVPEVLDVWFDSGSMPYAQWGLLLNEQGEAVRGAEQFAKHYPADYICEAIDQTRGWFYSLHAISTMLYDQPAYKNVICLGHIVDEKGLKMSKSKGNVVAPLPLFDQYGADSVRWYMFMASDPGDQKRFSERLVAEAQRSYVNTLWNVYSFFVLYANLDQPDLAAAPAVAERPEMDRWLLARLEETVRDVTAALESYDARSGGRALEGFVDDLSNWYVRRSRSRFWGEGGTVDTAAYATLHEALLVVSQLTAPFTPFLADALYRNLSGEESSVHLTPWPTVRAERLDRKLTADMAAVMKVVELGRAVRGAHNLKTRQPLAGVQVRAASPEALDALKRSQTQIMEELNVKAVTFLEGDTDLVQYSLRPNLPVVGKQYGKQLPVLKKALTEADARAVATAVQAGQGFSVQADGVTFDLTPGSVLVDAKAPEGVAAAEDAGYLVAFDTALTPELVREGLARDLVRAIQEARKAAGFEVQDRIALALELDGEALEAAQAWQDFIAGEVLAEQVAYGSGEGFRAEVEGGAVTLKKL
Description: biochemical. The method, then: as §1, §2, §3

Experiment [3] addresses wt-HVGH PmIleRS2. Conditions: cited from earlier work.
[4] abbreviates: KI (MUP)ATP, amino acid activation assay, ATP as variable substrate, average ± SD of three independent experiments.
Where [5] appears, read: KI (MUP)Ile, amino acid activation step, ATP/PPi exchange assay, Ile varied, ATP saturating, average ± SD of three independent experiments.
Where [6] appears, read: KI, single replicates, mupirocin inhibition towards Ile, GraphPad Prism output, Repl1-Repl3.

Usually Ki stands for the equilibrium dissociation constant of an inhibitor or competing ligand from its target. `C/C(=C\C(=O)OCCCCCCCCC(=O)O)C[C@@H]1OC[C@H](C[C@@H]2O[C@H]2[C@@H](C)[C@H](C)O)[C@@H](O)[C@H]1O` [mupirocin]: the inhibition constant Ki in experiment [1] (setting [4]) was 34 ± 2 µM; in experiment [1] (setting [5]), 35 ± 2 µM; in experiment [1] (setting [6]) it was 34 µM and 35 µM and 36 µM; in experiment [2] (setting [4]), 9.3 ± 0.4 µM; in experiment [2] (setting [5]), 8.1 ± 0.3 µM; in experiment [2] (setting [6]) it was 7.8 µM and 8.4 µM (2×). Also, the Ki in experiment [3] (amino acid activation step, ATP/PPi exchange assay, Ile varied, read-out: KI (MUP)Ile) was 1.08 ± 0.06 µM; in experiment [3] (mupirocin inhibition towards Ile, GraphPad Prism output, Repl1-Repl3, Table 1 footnote b gives this enzyme's values as from ref 21, read-out: KI, single replicates), 1.04 µM and 0.99 µM and 1.18 µM.
